Biological target: T1, HIV-1 RT-associated RDDP activity, wt RT (Human immunodeficiency virus type 1 group M subtype B, UniProt P04585)
T1 construct: The 1:1 ration between the p66/p51 subunits was also verified; made in house; host or cells: E. coli M15
Assay: biochemical
Parameters: species or system HIV-1 group M subtype B

**Q.** For `N#Cc1ccc(-c2csc(NN=C3C(=O)Nc4ccccc43)n2)cc1` [RMNC6, (Z)-4-(2-(2-(2-oxoindolin-3-ylidene)hydrazinyl)thiazol-4-yl)benzonitrile], which IC50 is on record?
**A.** The IC50 was 9.8 ± 1.4 µM.

Reference: publication PMC4723341, “Ribonuclease H/DNA Polymerase HIV-1 Reverse Transcriptase Dual Inhibitor: Mechanistic Studies on the Allosteric Mode of Action of Isatin-Based Compound RMNC6” (PLoS ONE, 2016)
